Results reported in PMC4261083, “An atypical residue in the pore of Varroa destructor GABA-activated RDL receptors affects picrotoxin block and thymol modulation” (Insect Biochemistry and Molecular Biology, 2014).
Residue numbers refer to the chain shown, from its start.

Experiments:
[1] = target: T1, T6′M mutant Drosophila RDL receptor (Drosophila melanogaster, UniProt P25123, T305M); assay: Thymol modulation of GABA concentration-response curves, two electrode voltage clamp in Xenopus oocytes; assay type: cell-based
T1 construct: expressed in transfected cells; host or cells: Xenopus laevis oocytes injected with cRNA
T1 sequence (P25123 45-606 T305M): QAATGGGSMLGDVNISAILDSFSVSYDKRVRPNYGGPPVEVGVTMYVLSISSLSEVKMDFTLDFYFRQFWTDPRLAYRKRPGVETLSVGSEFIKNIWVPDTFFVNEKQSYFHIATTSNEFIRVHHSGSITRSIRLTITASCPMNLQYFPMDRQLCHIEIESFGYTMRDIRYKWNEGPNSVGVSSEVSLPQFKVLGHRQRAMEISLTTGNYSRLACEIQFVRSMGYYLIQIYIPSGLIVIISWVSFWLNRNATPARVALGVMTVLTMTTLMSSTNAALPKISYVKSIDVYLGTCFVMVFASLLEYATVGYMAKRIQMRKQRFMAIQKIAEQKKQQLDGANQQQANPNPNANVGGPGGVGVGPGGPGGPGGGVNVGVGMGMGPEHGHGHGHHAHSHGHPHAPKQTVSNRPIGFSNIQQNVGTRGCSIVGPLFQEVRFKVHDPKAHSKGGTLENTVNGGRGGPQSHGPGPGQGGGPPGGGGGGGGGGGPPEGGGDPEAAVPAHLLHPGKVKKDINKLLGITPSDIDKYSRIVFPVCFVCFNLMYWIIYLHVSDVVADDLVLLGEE
Description: (§1) X. laevis oocyte-positive females were purchased from NASCO (Fort Atkinson, Wisconsin, USA) and maintained according to standard methods. Harvested stage V-VI Xenopus oocytes were washed in four changes of ND96 (96 mM NaCl, 2 mM KCl, 1 mM MgCl2, 1 mM CaCl2, 5 mM HEPES, pH 7.5), de-folliculated in 1.5 mg ml^−1 collagenase Type 1A for approximately 2 h, washed again in four changes of ND96 and stored in ND96 containing 2.5 mM sodium pyruvate, 0.7 mM theophylline and […].
(§2) Site directed mutagenesis was performed with the QuikChange mutagenesis kit (Agilent, La Jolla, CA). cRNA was transcribed in vitro from linearised pGEMHE cDNA template using the mMessage mMachine T7 Transcription kit (Ambion, Austin, Texas, USA). Stage V and VI oocytes were injected with 5 ng cRNA, incubated at 18 °C, and currents recorded 18–24 h post-injection.
(§3) Currents were recorded at 5 kHz and filtered at a frequency of 1 kHz. Micro-electrodes were fabricated from borosilicate glass (GC120TF-10, Harvard Apparatus, Edenbridge, Kent, UK) using a one stage horizontal pull (P-87, Sutter Instrument Company, California, USA) and filled with 3 M KCl. […] Oocytes were perfused with ND96 at a constant rate of 12 ml min^−1. Drug application was via a simple gravity fed system calibrated to run at the same rate.
(§4) Analysis and curve fitting was performed using Prism v5 (GraphPad Software, San Diego, California, USA). Concentration-response data for each oocyte was normalised to the maximum current for that oocyte. The mean and S.E.M. for a series of oocytes were fitted to the four parameter logistic equation in Prism.

[2] = target: T2, A21′Q mutant Drosophila RDL receptor (Drosophila melanogaster, UniProt P25123, A320Q); assay: as above; assay type: cell-based
T2 construct: expressed in transfected cells; host or cells: Xenopus laevis oocytes injected with cRNA
T2 sequence (P25123 45-606 A320Q): T1 sequence (P25123 45-606 T305M) with M261T, A276Q
Description: as §1, §2, §3, §4

[3] = GABA EC50 control vs +100 μM thymol
[4] = GABA concentration-response in presence of 100 μM thymol

`Cc1ccc(C(C)C)c(O)c1` [Thymol, thymol] was tested, and the “Effect of thymol on GABA-induced responses” value ([1]; 100 μM thymol, at some GABA concentrations) was “inhibition”, the “Fold change in EC50” value [1, 3] was 3.4 and the “% Imax” value [1, 4] was 35 ± 9%. For the same compound, the “Effect of thymol on GABA-induced responses” value ([2]; 100 μM thymol, 1 μM GABA) was “enhance”, the “Fold change in EC50” value [2, 3] was 3.6 and the “% Imax” value [2, 4] was 89 ± 4%.
